Results reported in patent US20230046078A1, “METHODS OF USING SUBSTITUTED FLAVONES FOR TREATING BONE DISORDERS” (EMORY UNIVERSITY, priority 2021, published 2023).
“Also recorded” adds a separate entry of the source.

Key:
BDNF/TrkB signaling = test: Immunoblotting of p-TrkB signaling in bone marrow after oral R13; assay type: in vivo, mice; conditions: R13-derived 7,8-DHF after oral administration of R13
MC3T3-E1 cells [1] = assay type: cell-based, Murine; conditions: OIM, 4 days
AEP = AEP activity assay on MC3T3-E1 cell lysates; assay type: cell-based, Murine; conditions: MC3T3 cells in OIM; substrate Z-Ala-Ala-Asn-AMC
Description: Cell lysates (10 μg) were incubated in 200 μl assay buffer (20 mM citric acid, 60 mM Na2HPO4, 1 mM EDTA, 0.1% CHAPS, and 1 mM DTT, pH 6.0) containing 20 μM δ-secretase substrate Z-Ala-Ala-Asn-AMC (Bachem, Bubendorf, Switzerland). AMC released by substrate cleavage was quantified by measuring at 460 nm in a fluorescence plate reader at 37° C. for 2 h in kinetic mode.

MC3T3-E1 cells [2] = assay type: cell-based, Murine; conditions: OIM, four days
Description: Total RNA was isolated by TRIzol (Life Technologies, Carlsbad, Calif.). Reverse transcription was performed with SuperScript III reverse transcriptase (Life Technologies). Gene-specific primers and probes were designed and bought from Taqman (Life Technologies). All real-time PCR reactions were performed using the ABI 7500-Fast Real-Time PCR System and the Taqman Universal Master Mix Kit (Life Technologies). The relative quantification of gene expression was calculated using the ΔΔCt method. Predesigned real-time PCR primers from Applied Biosystems (Waltham, Mass.) were used for the analysis of Opg (Tnfrsf11b; Mm0043545_m1), RANK-L (Tnfsf11; Mm00441908_m1), AEP (Lgmn; Mm01325350_m1), GAPDH (Gapdh; Mm99999915_g1).

MC3T3-E1 cells [3] = test: ELISA of OPG and RANK-L secreted into the medium of MC3T3 cells; assay type: cell-based, Murine; conditions: OIM; vs OIM alone
Excerpt: FIG. 9, Panel A contains representative images of ALP staining in […] cells treated with BDNF or 7,8-DHF combined with or without K252a for 14 days (n=3 independent experiments) (Scale bar, 5 mm (upper panel), 200 μm (lower panel)). […] FIG. 9, Panel C contains Western blots for MC3T3 cells cultured in complete medium or osteogenic induction medium (OIM) with BDNF or 7,8 DHF combined with or without K252a for 4 days. […] FIG. 9, Panel D contains graphs of the relative protein levels of C/EBPP, p-C/EBPβ, AEP, RANK-L, OPG, Osterix, p-TrkB/TrkB and p-Akt/AKT in MC3T3 cells cultured in the complete medium or OIM with BDNF or 7,8-DHF combined with or without K252a for four days. Data are shown as mean±SEM of three independent experiments, one-way ANOVA. Data are shown in each graph from left to right as 1) Control, 2) OIM+DMSO, 3) OIM+BDNF, 4) OIM+7,8-DHF, 5) OIM+BDNF+K252a, and 6) OIM+7,8-DHF+K252a. FIG. 9, Panel E contains graphs of an AEP enzymatic activity assay. BDNF and 7,8-DHF inhibit AEP activities, and K252a abolish BDNF and 7,8-DHF's effects. Data are shown as mean±SEM of 3 independent experiments, one-way ANOVA. Data are shown in each graph from left to right as 1) Control, 2) OIM+DMSO, 3) OIM+BDNF, 4) OIM+7,8-DHF, 5) OIM+BDNF+K252a, and 6) OIM+7,8-DHF+K252a. FIG. 9, Panel F contains graphs of qPCR results showing that OPG mRNA expression increases in MC3T3 cells after 7,8-DHF treatment for four days. Data are shown as mean±SEM of three independent experiments, one-way ANOVA. Data are shown in each graph from left to right as 1) Control, 2) OIM+DMSO, 3) OIM+BDNF, 4) OIM+7,8-DHF, 5) OIM+BDNF+K252a, and 6) OIM+7,8-DHF+K252a. FIG. 9, Panel G contains graphs showing that 7,8-DHF increases OPG and decreases the RANK-L/OPG ratio. Levels of OPG and RANK-L proteins secreted into the medium were measured by ELISA. Data are shown as mean±SEM of 3 independent experiments, one-way ANOVA. Data are shown in each graph from left to right as 1) Control, 2) OIM+DMSO, 3) OIM+BDNF, 4) OIM+7,8-DHF, 5) OIM+BDNF+K252a, and 6) OIM+7,8-DHF+K252a.

TrkB = conditions: primary neurons; read-out: EC50 for activating TrkB; cited from earlier work
MC3T3-E1 cells [4] = conditions: OIM
Description: MC3T3-E1 cells were seeded onto plates in complete medium and cultured for 24 days, until the cells reached 70% confluence.
MC3T3-E1 and RAW 264.7 cells were washed with ice-cold PBS and lysed in (50 mM Tris, pH 7.4, 40 mM NaCl, 1 mM EDTA, 0.5% Triton X-100, 1.5 mM Na3VO4, 50 mM NaF, 10 mM sodium pyrophosphate, 10 mM sodium β-glycerophosphate, supplemented with protease inhibitor cocktail) at 4° C. for 0.5 h, and centrifuged for 25 min at 15,000 rpm. The supernatant was boiled in SDS loading buffer. After SDS-PAGE, the samples were transferred to a nitrocellulose membrane. The membrane was blocked with TBS containing 5% nonfat milk and 0.1% Tween 20 (TBST) at room temperature for 2 hours, followed by the incubation with primary antibody at 4° C. overnight, and with the secondary antibody at room temperature for 2 hours. After washing with TBST, the membrane was developed using the enhanced chemiluminescent (ECL) detection system.
To further interrogate the molecular mechanism of 7,8-DHF in promoting OPG expression, a time course study in MC3T3-E1 cells in the presence of OIM was conducted.

In the case of `O=c1cc(-c2ccccc2)oc2c(O)c(O)ccc12` [7,8-DHF], the “BDNF/TrkB signaling in the bone marrow (p-TrkB, AKT, MAPK phosphorylation)” value (BDNF/TrkB signaling) is reported as “activates”, the AEP expression (MC3T3-E1 cells [1]) is reported as “diminished” and the “RANK-L protein (Western blot)” value (MC3T3-E1 cells [1]) is reported as “augmentation”. For the same compound, the AEP protease activities (AEP) was “greatly blocked; also recorded: inhibit”, the “RANK-L mRNA” value (MC3T3-E1 cells [2]) was “elevated” and the “OPG protein secreted into the medium” value (MC3T3-E1 cells [3]) was “further augmented; also recorded: increases”. The “RANK-L protein secreted into the medium” value (MC3T3-E1 cells [3]) was “further augmented”, the “RANK-L/OPG ratio (ELISA)” value (MC3T3-E1 cells [3]) was “OIM alone were significantly higher than BDNF and 7,8-DHF; also recorded: decreases” and the EC50 (TrkB) was ~50 nM. The “CREB or c-Jun levels” value (MC3T3-E1 cells [4]; siRNA experiment) was “without interfering”, the p-Akt (MC3T3-E1 cells [4]; time course 0-60 min) was “activated” and the p-C/EBPβ signal (MC3T3-E1 cells [4]; time course 0-60 min) was “time-dependently increased”. For the same compound, the p-CREB signal (MC3T3-E1 cells [4]; time course 0-60 min) was “time-dependently increased”, the p-MAPK (MC3T3-E1 cells [4]; time course 0-60 min) was “activated” and the p-TrkB (MC3T3-E1 cells [4]; time course 0-60 min) was “activated”. The p-c-Jun signal (MC3T3-E1 cells [4]; time course 0-60 min) was “time-dependently increased”.
